The test relates to BDF1 mice, P388 leukemia ip, median survival T/C. Description: NCI In Vivo Anticancer Drug Screen. Data for tumor model P388 Leukemia (intraperitoneal) in B6D2F1 (BDF1) mice. The note with it: endpoint: median survival time, higher = longer survival. An outline of the steps: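 Transplantable tumour in mice; compound vs vehicle dosing; survival scored; ratio of treated to control reported.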

The mark [1] stands for this setting: dose: 50.0 mg/kg/injection, schedule: Q01DX009 (ip), vehicle: saline with Tween-80.
Where [2] appears, read: dose: 100.0 mg/kg/injection, schedule: Q01DX009 (ip), vehicle: saline with Tween-80.
[3] abbreviates: dose: 100.0 mg/kg/injection, schedule: Q04DX003 (ip), vehicle: saline with Tween-80.
The mark [4] stands for this setting: dose: 200.0 mg/kg/injection, schedule: Q04DX003 (ip), vehicle: saline with Tween-80.
[5] abbreviates: dose: 400.0 mg/kg/injection, schedule: Q04DX003 (ip), vehicle: saline with Tween-80.
Setting [6] is: dose: 200.0 mg/kg/injection, schedule: Q01DX009 (ip), vehicle: saline with Tween-80.
Setting [7] is: dose: 400.0 mg/kg/injection, schedule: Q01DX009 (ip), vehicle: saline with Tween-80.
[8] abbreviates: dose: 44.0 mg/kg/injection, schedule: Q01DX009 (ip), vehicle: saline with Tween-80.
Where [9] appears, read: dose: 66.0 mg/kg/injection, schedule: Q01DX009 (ip), vehicle: saline with Tween-80.
Setting [10] is: dose: 150.0 mg/kg/injection, schedule: Q01DX009 (ip), vehicle: saline with Tween-80.
Where [11] appears, read: dose: 100.0 mg/kg/injection, schedule: Q04DX003 (ip), vehicle: saline.
Setting [12] is: dose: 200.0 mg/kg/injection, schedule: Q04DX003 (ip), vehicle: saline.
[13] abbreviates: dose: 400.0 mg/kg/injection, schedule: Q04DX003 (ip), vehicle: saline.
[14] abbreviates: dose: 12.5 mg/kg/injection, schedule: Q01DX009 (ip), vehicle: saline with Tween-80.

Several values for one entry are separate records, joined by “and”; a condition that tells them apart may be missing. Equal values may be shown once. Inconclusive results and toxic doses are left out.

As for `O=C(CN1CCCCC1)c1ccc2c(c1)Cc1cc(C(=O)CN3CCCCC3)ccc1O2`, the T/C is 98 % of control under setting [1] and 90 % of control under setting [2].

As for `COc1ccc(C=Nc2ccccc2)cc1`, the T/C by setting is: under setting [3], 100 % of control; under setting [4], 100 % of control; under setting [5], 100 % of control.

With `C=C1C(=O)OC2CC3(C)OC3C3OC3C3=CC(OC3=O)C12` (stereo not given), the T/C runs as follows: (dose: 1.25 mg/kg/injection, schedule: Q01DX010 (ip), vehicle: saline) 115 % of control; (dose: 2.5 mg/kg/injection, schedule: Q01DX010 (ip), vehicle: saline) 115 % of control; (dose: 5.0 mg/kg/injection, schedule: Q01DX010 (ip), vehicle: saline) 115 % of control; (dose: 10.0 mg/kg/injection, schedule: Q01DX010 (ip), vehicle: saline) 100 % of control.

In the case of `COC(OC)c1[nH]c(=S)[nH]c(=O)c1Cc1ccc(C)c(C)c1`, the T/C was 103 % of control under setting [2], 96 % of control under setting [6] and 100 % of control under setting [7].

Consider `CCCCC(CC)C1NCCO1` (stereo not given), for which the T/C is, setting by setting: under setting [1], 103 % of control; under setting [3], 110 % of control; under setting [6], 92 % of control; under setting [4], 115 % of control; under setting [5], 115 % of control.

As to `CCCCCC(=O)O[C@]1(C(C)=O)CC[C@H]2[C@@H]3CCC4=CC(=O)CC[C@]4(C)[C@H]3CC[C@@]21C`, the T/C reads like this: under setting [8], 105 % of control; under setting [9], 110 % of control; under setting [2], 90 % of control; under setting [3], 100 % of control; under setting [10], 100 % of control; under setting [6], 105 % of control. Moreover, the T/C under setting [4] is 100 % of control, the T/C under setting [7] was 100 % of control and the T/C under setting [5] is 100 % of control.

On to `Cc1cccc(CSc2nc(N)nc3ncn(C4CC(O)C(CO)O4)c23)n1` (stereo not given), for which the T/C (dose: 100.0 mg/kg/injection, schedule: Q01DX009 (ip), vehicle: saline) was 103 % of control; the T/C under setting [11] is 100 % of control; the T/C (dose: 200.0 mg/kg/injection, schedule: Q01DX009 (ip), vehicle: saline) was 97 % of control; the T/C under setting [12] is 104 % of control; the T/C (dose: 400.0 mg/kg/injection, schedule: Q01DX009 (ip), vehicle: saline) is 103 % of control; the T/C under setting [13] was 100 % of control.

As for `O=[N+]([O-])c1ccc(Cl)c(S(=O)O)c1`, the T/C is 95 % of control (dose: 75.0 mg/kg/injection, schedule: Q04DX003 (ip), vehicle: saline); 100 % of control (dose: 150.0 mg/kg/injection, schedule: Q04DX003 (ip), vehicle: saline); 95 % of control (dose: 300.0 mg/kg/injection, schedule: Q04DX003 (ip), vehicle: saline).

With `CCc1ccc2c(c1)N(CCCN(CCCl)CCCl)c1ccccc1S2`, the T/C (dose: 1.56 mg/kg/injection, schedule: Q04DX003 (ip), vehicle: saline with Tween-80) was 102 % of control and 104 % of control; the T/C (dose: 3.12 mg/kg/injection, schedule: Q04DX003 (ip), vehicle: saline with Tween-80) is 93 % of control and 104 % of control; the T/C (dose: 6.25 mg/kg/injection, schedule: Q04DX003 (ip), vehicle: saline with Tween-80) was 118 % of control; the T/C (dose: 12.5 mg/kg/injection, schedule: Q04DX003 (ip), vehicle: saline with Tween-80) is 163 % of control.

Regarding `C(=N\N(c1ccccc1)c1ccccc1)/c1ccc(/C=N/N(c2ccccc2)c2ccccc2)cc1`, the T/C was 100 % of control (dose: 100.0 mg/kg/injection, schedule: Q04DX003 (ip), vehicle: Klucel (hydroxypropylcellulose) (HPC)); 100 % of control (dose: 200.0 mg/kg/injection, schedule: Q04DX003 (ip), vehicle: Klucel (hydroxypropylcellulose) (HPC)); 95 % of control (dose: 400.0 mg/kg/injection, schedule: Q04DX003 (ip), vehicle: Klucel (hydroxypropylcellulose) (HPC)).

Regarding `CC(=O)NC(O)C(Cl)(Cl)Cl` (stereo not given), the T/C is 91 % of control (dose: 100.0 mg/kg/injection, schedule: Q04DX003 (ip), vehicle: saline sonified); 108 % of control (dose: 200.0 mg/kg/injection, schedule: Q04DX003 (ip), vehicle: saline sonified); 100 % of control (dose: 400.0 mg/kg/injection, schedule: Q04DX003 (ip), vehicle: saline sonified).

Turning to `NC(=S)N/N=C\c1nccc2c(C(F)(F)C(F)(F)C(F)(F)F)cccc12`, the T/C was 110 % of control under setting [3], 98 % of control under setting [4] and 88 % of control under setting [5].

In the case of `CN(C)CC(=O)N/N=C\c1ccc([N+](=O)[O-])s1`, the T/C is, setting by setting: (dose: 25.0 mg/kg/injection, schedule: Q04DX003 (ip), vehicle: saline) 87 % of control; (dose: 50.0 mg/kg/injection, schedule: Q04DX003 (ip), vehicle: saline) 87 % of control; under setting [11], 91 % of control.

As for `CCOC(=O)C(C)NC(=O)N(C)C12CC3CC(CC(C3)C1)C2` (stereo not given), the T/C is 113 % of control (dose: 100.0 mg/kg/injection, schedule: Q01DX009 (ip), vehicle: Klucel (hydroxypropylcellulose) (HPC)); 117 % of control (dose: 200.0 mg/kg/injection, schedule: Q01DX009 (ip), vehicle: Klucel (hydroxypropylcellulose) (HPC)); 119 % of control (dose: 400.0 mg/kg/injection, schedule: Q01DX009 (ip), vehicle: Klucel (hydroxypropylcellulose) (HPC)).

Consider `CCCC(=O)Oc1ccc(/C=N/NC(N)=S)nc1`, for which the T/C is, setting by setting: under setting [8], 172 % of control; under setting [1], 173 % of control; under setting [9], 183 % of control; under setting [2], 201 % of control and 211 % of control; under setting [10], 227 % of control; under setting [6], 115 % of control.

`CC(=O)N(C(C)=O)c1ccc(N=Nc2ccccc2C)cc1C`: the T/C reads like this: under setting [1], 90 % of control; under setting [2], 90 % of control; under setting [3], 95 % of control; under setting [6], 86 % of control; under setting [4], 100 % of control; under setting [5], 100 % of control.

With `CC(C(=O)c1ccc(Br)cc1)C(Br)c1ccccc1` (stereo not given), the T/C was 90 % of control under setting [1]; 113 % of control under setting [2]; 88 % of control under setting [11]; 88 % of control under setting [6]; 99 % of control under setting [12]; 97 % of control under setting [7]. Also, the T/C under setting [13] was 91 % of control.

On to `CC(C)C1=CC23CCC4C(C)(C(N)=O)CCCC4(C)C2CC1C1C(=O)OC(=O)C13` (stereo not given), for which the T/C was 100 % of control (dose: 12.5 mg/kg/injection, schedule: Q01DX001 (ip), vehicle: saline with Tween-80); 108 % of control (dose: 25.0 mg/kg/injection, schedule: Q01DX001 (ip), vehicle: saline with Tween-80); 104 % of control (dose: 50.0 mg/kg/injection, schedule: Q01DX001 (ip), vehicle: saline with Tween-80).

In the case of `O=[N+]([O-])c1ccc(S(=O)c2ccc([N+](=O)[O-])c3nonc23)cc1` (stereo not given), the T/C was 90 % of control (dose: 15.0 mg/kg/injection, schedule: Q01DX009 (ip), vehicle: saline with Tween-80) and 97 % of control (dose: 30.0 mg/kg/injection, schedule: Q01DX009 (ip), vehicle: saline with Tween-80).

Regarding `CCCCCCC(c1c(O)cc(C)[nH]c1=O)c1c(O)cc(C)[nH]c1=O`, the T/C by setting is: under setting [1], 96 % of control; under setting [2], 96 % of control; under setting [6], 90 % of control.

As for `Clc1cc(CBr)c(CBr)cc1Cl`, the T/C under setting [14] is 100 % of control.

In the case of `O=C(/C=C/c1ccc(O)cc1)c1ccccc1`, the T/C reads like this: under setting [3], 118 % of control; under setting [4], 168 % of control; under setting [5], 113 % of control.

On to `COC1C(O)CC(=O)OC(C)C/C=C/C=C/C(OC2CCC(N(C)C)C(C)O2)C(C)CC(CC=O)C1OC1OC(C)C(OC2CC(C)(O)C(O)C(C)O2)C(N(C)C)C1O` (stereo not given), for which the T/C by setting is: (dose: 6.25 mg/kg/injection, schedule: Q01DX009 (ip), vehicle: saline with Tween-80) 102 % of control; under setting [14], 94 % of control; (dose: 25.0 mg/kg/injection, schedule: Q01DX009 (ip), vehicle: saline with Tween-80) 100 % of control.

Consider `CCOC(=O)C1CC1C(=O)O` (stereo not given), for which the T/C under setting [11] is 103 % of control and the T/C under setting [12] is 114 % of control.

These data come from PubChem BioAssay AID328 (DTP/NCI, 2004).
